In ChEMBL document CHEMBL4396870, “Pharmacological Chaperones for the Treatment of α-Mannosidosis” (J Med Chem, 2019):
Positions count from the first letter of the chain named.

How the values were obtained:
[1] = molecular target: T1, Lysosomal alpha-mannosidase (Homo sapiens) (UniProt O00754); assay: Chaperone activity at Lysosomal alpha-mannosidase in wild-type human fibroblasts assessed as increase in Lysosomal alpha-mannosidase activity at 0.2 uM using 4-methylumbelliferone alpha-D-mannopyranoside as a reporter substrate incubated for 4 days by fluorescence method relative to control
T1 sequence (whole entry): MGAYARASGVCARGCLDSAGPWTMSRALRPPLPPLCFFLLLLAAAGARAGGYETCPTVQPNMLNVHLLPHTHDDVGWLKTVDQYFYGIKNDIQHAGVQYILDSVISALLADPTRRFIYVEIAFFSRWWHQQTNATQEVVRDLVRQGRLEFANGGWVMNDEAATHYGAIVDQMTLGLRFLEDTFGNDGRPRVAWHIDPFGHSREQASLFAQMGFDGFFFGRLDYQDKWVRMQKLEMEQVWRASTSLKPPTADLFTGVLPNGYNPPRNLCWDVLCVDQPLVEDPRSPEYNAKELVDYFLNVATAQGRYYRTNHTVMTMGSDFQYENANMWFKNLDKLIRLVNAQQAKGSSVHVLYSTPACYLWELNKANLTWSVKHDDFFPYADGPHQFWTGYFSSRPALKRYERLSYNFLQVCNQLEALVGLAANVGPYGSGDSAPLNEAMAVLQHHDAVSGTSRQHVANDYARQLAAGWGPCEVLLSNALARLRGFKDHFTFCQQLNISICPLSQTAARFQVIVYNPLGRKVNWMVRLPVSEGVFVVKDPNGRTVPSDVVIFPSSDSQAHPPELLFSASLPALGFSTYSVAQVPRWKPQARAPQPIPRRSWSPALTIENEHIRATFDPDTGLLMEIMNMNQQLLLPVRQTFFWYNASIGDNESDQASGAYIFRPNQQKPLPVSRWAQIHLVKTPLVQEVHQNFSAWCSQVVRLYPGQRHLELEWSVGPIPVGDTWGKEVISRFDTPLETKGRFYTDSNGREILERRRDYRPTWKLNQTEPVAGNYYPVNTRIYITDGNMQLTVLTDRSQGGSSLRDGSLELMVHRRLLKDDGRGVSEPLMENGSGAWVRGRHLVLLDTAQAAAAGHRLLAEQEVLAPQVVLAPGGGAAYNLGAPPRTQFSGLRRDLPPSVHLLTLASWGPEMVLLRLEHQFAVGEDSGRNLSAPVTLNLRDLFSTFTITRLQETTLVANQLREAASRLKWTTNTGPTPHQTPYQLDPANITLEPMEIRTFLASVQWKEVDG

[2] = system: T2, Lysosomal alpha-mannosidase (Homo sapiens), O00754 [R916C]; assay: Chaperone activity at human Lysosomal alpha-mannosidase R916C mutant transfected in human […] knockout HAP1 cells assessed as enzyme activity enhancement at 0.2 uM incubated for 96 hrs relative to control
T2 sequence (whole entry): T1 sequence (whole entry) with R916C

Row | SMILES | fold change (FC) [1] | Activity [2] [%]
1 | CCCc1cn(CCCCCCN[C@@H]2[C@@H](O)[C@@H](O)[C@H](O)[C@H]3COC(=O)N32)nn1 | 2 | –
2 | CC(C)(C)OC(=O)NCCCCCCCCCN[C@@H]1[C@@H](O)[C@@H](O)[C@H](O)[C@H]2COC(=O)N21 | – | 8
3 | COC[C@H]1O[C@@H]2O[C@H]3[C@H](OC)[C@@H](OC)[C@@H](O[C@H]4[C@H](OC)[C@@H](OC)[C@@H](O[C@H]5[C@H](OC)[C@@H](OC)[C@@H](O[C@H]6[C@H](OC)[C@@H](OC)[C@@H](O[C@H]7[C@H](OC)[C@@H](OC)[C@@H](O[C@H]8[C@H](OC)[C@@H](OC)[C@@H](O[C@H]1[C@H](OC)[C@H]2OC)O[C@@H]8COC)O[C@@H]7COC)O[C@@H]6COC)O[C@@H]5COCc1cn(CCCCCCN[C@@H]2[C@@H](O)[C@@H](O)[C@H](O)[C@H]5COC(=O)N52)nn1)O[C@@H]4COC)O[C@@H]3COC | 2 | 45
